Where two headings read alike, the source gives them in different places.
How the values were obtained:
AT-1 = assay: Potentiation of daunorubicin (30 nM) in rat prostatic tumor cells AT-1 (cell survival, Coulter counter); assay type: cell-based
HCT-15 = assay: Potentiation of daunorubicin (50 nM) in human colon tumor cells HCT-15 (cell survival, Coulter counter); assay type: cell-based; details: HCT-15, read-out: IC50, HCT-15 (concentration required to reduce cell survival by 50%)
HCT-15 cells = assay: In vivo HCT-15 subcutaneous xenograft in SCID mice, doxorubicin alone or plus compound 1:1; set-up: Significance (p) of difference in tumor growth between (1) vehicle and (2) doxorubicin, symbol * / Significance (p) of difference in tumor growth between (1) vehicle and (2) doxorubicin, symbol ***: dose or concentration left out as unconfirmed; details: days 9, 13, 17
[1] = cited from earlier work
tumors = details: animal models; cited from earlier work
[2] = with daunorubicin 30 nM, 24 h, then 96 h drug free, AT-1, read-out: IC50, AT-1 (concentration required to reduce cell survival by 50%)

Work on CCCCN(CCCC)CCCNC(=O)OC1CC[C@@]2(C)C(=CC[C@H]3[C@@H]4CC[C@H](C(C)=O)[C@@]4(C)CC[C@@H]32)C1 (stereo partly shown) [1:4, pregn-5-ene-20-one-3-yl, N-(3-dibutylamino-propyl)-carbamate] yielded an IC50 (AT-1; [2]) of 190 nM.

With CCCCN(CCCC)CCCNC(=O)OC(C)[C@H]1CC[C@H]2[C@@H]3CCC4=CC(=O)CC[C@]4(C)[C@H]3CC[C@]12C (stereo partly shown) [1:13, pregn-4-ene-3-one-20-yl, N-(3-dibutylamino-propyl)-carbamate] the IC50 (AT-1; [2]) was 210 nM.

CC(=O)[C@H]1CC[C@H]2[C@@H]3CCC4=CC(=O)CC[C@]4(C)[C@H]3C(OC(=O)N(Cc3ccccc3)Cc3ccccc3)C[C@]12C (stereo partly shown) [1:35, pregn-4-ene-3,20-dione-11-yl, N,N-dibenzyl-carbamate] gave an IC50 (AT-1; [2]) of 150 nM.

For CCCCN(CCCC)C(=O)OC1C[C@]2(C)[C@@H](C(C)=O)CC[C@H]2[C@@H]2CCC3=CC(=O)CC[C@]3(C)[C@@H]12 (stereo partly shown) [Compound 1:1, pregn-4-ene-3,20-dione-11-yl, N,N-dibutylcarbamate], the IC50 (AT-1; [2]) was 760 nM, the IC50 (HCT-15; with daunorubicin 50 nM, 24 h, then 96 h drug free) was 510 nM and the “Potentiating effect in vivo” value (HCT-15 cells; compound 1:1 400 mg/kg p.o. 2 hours before doxorubicin i.v.) was “potentiating effect”.

For COc1ccc(CCN(C)CCCC2(c3ccc4ccccc4c3)SCCCS2)cc1OC [RO 11-2933], the “In vivo activity in combination with doxorubicin” value [1] is given as “in vivo activity”.

For COc1cccc2c1C(=O)c1c(O)c3c(c(O)c1C2=O)C[C@@](O)(C(=O)CO)C[C@@H]3O[C@H]1C[C@H](N)[C@H](O)[C@H](C)O1 [doxorubicin], the “Significance (p) of difference in tumor growth between (1) vehicle and (2) doxorubicin, symbol *” value (HCT-15 cells; doxorubicin i.v., symbol *) was less than 0.05 and the “Significance (p) of difference in tumor growth between (1) vehicle and (2) doxorubicin, symbol ***” value (HCT-15 cells; doxorubicin i.v., symbol ***) was less than 0.005.

In the case of CC12CCC3c4ccc(OC(=O)N(CCCl)CCCl)cc4CCC3C1CCC2O (stereo not shown) [estramustine], the IC50 (HCT-15) is listed as greater than 2500 nM and the “Potentiation of radiation effects on tumors” value (tumors) is listed as “potentiate radiation effects on tumors”.

For COc1ccc(CCN(C)CCCC(C#N)(c2ccc(OC)c(OC)c2)C(C)C)cc1OC (stereo not shown) [verapamil], the IC50 (AT-1; read-out: IC50, AT-1 (concentration required to reduce cell survival by 50%)) was 740 nM and the IC50 (HCT-15) was 500 nM.
